Patent publication US20240239801A1, “PYRIMIDO[5,4,D]PYRIMIDINE COMPOUNDS, COMPOSITIONS COMPRISING THEM AND USES THEREOF” (Université de Montréal, priority 2021, published 2024)
pIC50: −log10 of the molar value. Like-named read-outs stand apart in the source and are kept apart here.

What was measured:
BRAF = target: T1, BRAF (Homo sapiens, UniProt P15056); assay: BRAF kinase activity assay (ADP-Glo); format: biochemical
T1 construct: GST; purchased Millipore Sigma B4062-10UG
Description: (§1) Compound preparation: solid samples of each substances in 1dram vials were suspended in DMSO (Fisher Scientific) at a stock concentration of 20 mM. Stocks were kept at −20° C. and protected from light. If solubility of the compound at 20 mM appeared to be an issue, the initial concentration of the DMSO stock was changed to 10 mM or 5 mM.
(§2) In vitro enzymatic reactions were used for evaluating compounds intrinsic activity against BRAF, CRAF and ARAF. For BRAF and CRAF, 0.375 nM of purified GST-tagged kinases (cat #B4062-10UG and cat #R1656-10UG respectively from Millipore Sigma) were incubated with 75 nM of kinase-dead MEK1 substrate (cat #40075; BPS Bioscience) in the presence of 10 μM of Ultrapure ATP (cat #V9102; Promega; part V915A) with and without the test compound in a buffer containing 50 mM HEPES pH 7.5, 10 mM MgCl2, 1 mM EDTA, 0.01% Brij-35 and 2 mM DTT. Separate reactions were performed with the MEK1 substrate and ATP as a blank control. ARAF, kinase reactions were rigorously the same with the exception that kinase concentration was raised to 3.75 nM (cat #1768-0000-1; Reaction Biology).
(§3) For compound treatment, 5 μL/well of test substance solution are placed in a 384-well proxyplate (Perkin Elmer) and mixed with 2× concentrated kinase reactions. The dilution series is selected so that nine concentrations cover a range from 100 nM to 0.01 nM. […] The final concentration of DMSO in the assay is set at 0.05%.
(§4) BRAF and CRAF kinase reactions were carried out for a total of 2 hours at 30° C. and then stopped by ½ dilution in ADP-Glo Reagent (cat #V9102; Promega; part V912C). Reactions were then incubated for 1 h at room temperature before addition of one volume of Kinase Detection Reagent (cat #V9102; Promega; part V917A). Plates were then equilibrated at room temperature for 30 minutes before detection of luminescence on a Synergy Neo2 plate reader (Biotek). The effect of each compound dilution on BRAF and CRAF kinase activity was expressed as % inhibition and calculated as follows. First, the internal 100% inhibition control (average of luminescence in kinase reactions comprising kinase dead MEK1 substrate alone) was subtracted from each data point. The average of DMSO (vehicle) controls (set as 0% inhibition) was established and used to calculate % inhibition:
(§5) IC50 values were obtained by plotting the kinase inhibition values and fitting the dose-activity curves using a log(agonist) versus response−variable slope (four parameters) function using either GraphPadPrism (V7.0) or Dotmatics Screening Ultra platform. Standards included in the ARAF kinase assay were Belvarafenib (MedChem Express cat #HY-109080; CAS #1446113-23-0), LXH254 (MedChem Express cat #HY-112089; CAS #1800398-38-2) and BGB283 (cat #HY-18957; CAS #1446090-79-4).

CRAF = CRAF (Homo sapiens, UniProt P04049); assay: CRAF kinase activity assay (ADP-Glo); format: biochemical
Description: as §1, §2, §3, §4, §5

HCT116 pERK = assay: Phospho-ERK inhibition, AlphaLISA SureFire Ultra p-ERK 1/2; format: cell-based, human; conditions: for pIC50: 1 h treatment; for HCT116 (Ymin %): lowest value of the pERK IC50 curve
In short: (§6)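 Cells plated in RPMI-1640 with 5% FBS, held overnight, then exposed 1 h to ten-point compound dilutions (top 30 or 10 μM down to 0.33 nM; 0.5% DMSO). Lysates read for p-ERK1/2 (Thr202/Tyr204) by AlphaLISA; % inhibition relative to DMSO after subtracting a 1 μM trametinib background; IC50 from four-parameter fit.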

SW480 pERK = assay: as above; format: cell-based, human; conditions: for pIC50: 1 h treatment; for SW480 (Ymin %): lowest value of the pERK IC50 curve
In short: as §6

ARAF = target: T2, ARAF (Homo sapiens, UniProt P10398); assay: ARAF kinase activity assay (AlphaLISA p-MEK detection); format: biochemical; conditions: Table A
T2 sequence (P10398 310-570 limits assumed): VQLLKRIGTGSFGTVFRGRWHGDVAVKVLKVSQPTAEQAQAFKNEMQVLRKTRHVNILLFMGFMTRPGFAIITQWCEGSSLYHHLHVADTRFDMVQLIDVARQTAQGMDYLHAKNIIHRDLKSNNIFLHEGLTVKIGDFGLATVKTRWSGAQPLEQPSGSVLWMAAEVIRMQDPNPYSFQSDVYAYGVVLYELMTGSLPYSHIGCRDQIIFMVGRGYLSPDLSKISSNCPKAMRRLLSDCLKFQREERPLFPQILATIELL
Description: as §1, §2, §3
ARAF kinase reactions were carried out for a total of 2 hours at 30° C. and then stopped by addition of EDTA at a final concentration of 40 mM. Reactions were then detected using the AlphaLISA® SureFire® Ultra™ p-MEK ½ (Ser218/222) (PerkinElmer) kit. Reactions were performed with 5 μL of kinase reaction according to the manufacturer's specifications in 384-well proxyplates (Perkin Elmer) followed by overnight incubation of the reactions at room temperature in a humidified chamber. After completion of the detection reactions, the signals were recorded on a Synergy Neo2 plate reader (Biotek) equipped with AlphaLISA® filters. The effect of each compound dilution on the pMEK signal generated by ARAF reactions was expressed in % inhibition and calculated as follows. An internal 100% inhibition control (average of luminescence in kinase reactions comprising kinase dead MEK1 substrate alone) was included in each plate to measure of pMEK background and was subtracted from each data point. The average of DMSO (vehicle) controls (set as 0% inhibition) was also established and used to calculate % inhibition:
as §5

[1] = Table 3, read-out: SW480 PERK IC50

T1 sequence (P15056 whole entry): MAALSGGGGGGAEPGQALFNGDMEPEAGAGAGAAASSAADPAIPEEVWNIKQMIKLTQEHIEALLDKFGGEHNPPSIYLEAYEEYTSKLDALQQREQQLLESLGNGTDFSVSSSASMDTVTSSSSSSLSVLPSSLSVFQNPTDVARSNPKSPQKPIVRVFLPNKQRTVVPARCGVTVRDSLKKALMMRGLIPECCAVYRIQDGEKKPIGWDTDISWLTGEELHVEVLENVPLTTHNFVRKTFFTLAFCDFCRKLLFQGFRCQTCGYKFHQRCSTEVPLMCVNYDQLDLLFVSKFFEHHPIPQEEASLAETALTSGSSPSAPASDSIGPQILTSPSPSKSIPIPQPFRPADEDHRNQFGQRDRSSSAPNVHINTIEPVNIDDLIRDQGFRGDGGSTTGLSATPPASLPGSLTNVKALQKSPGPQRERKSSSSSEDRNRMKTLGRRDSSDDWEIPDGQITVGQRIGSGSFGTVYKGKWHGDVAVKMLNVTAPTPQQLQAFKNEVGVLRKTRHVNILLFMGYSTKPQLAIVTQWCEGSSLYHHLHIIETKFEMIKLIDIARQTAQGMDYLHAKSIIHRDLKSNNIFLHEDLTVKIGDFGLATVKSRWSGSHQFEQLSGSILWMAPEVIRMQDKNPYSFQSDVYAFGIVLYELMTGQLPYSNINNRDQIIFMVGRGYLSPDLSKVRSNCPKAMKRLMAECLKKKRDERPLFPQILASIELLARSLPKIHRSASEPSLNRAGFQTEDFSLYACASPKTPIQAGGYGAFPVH
Sequence of CRAF (P04049 whole entry): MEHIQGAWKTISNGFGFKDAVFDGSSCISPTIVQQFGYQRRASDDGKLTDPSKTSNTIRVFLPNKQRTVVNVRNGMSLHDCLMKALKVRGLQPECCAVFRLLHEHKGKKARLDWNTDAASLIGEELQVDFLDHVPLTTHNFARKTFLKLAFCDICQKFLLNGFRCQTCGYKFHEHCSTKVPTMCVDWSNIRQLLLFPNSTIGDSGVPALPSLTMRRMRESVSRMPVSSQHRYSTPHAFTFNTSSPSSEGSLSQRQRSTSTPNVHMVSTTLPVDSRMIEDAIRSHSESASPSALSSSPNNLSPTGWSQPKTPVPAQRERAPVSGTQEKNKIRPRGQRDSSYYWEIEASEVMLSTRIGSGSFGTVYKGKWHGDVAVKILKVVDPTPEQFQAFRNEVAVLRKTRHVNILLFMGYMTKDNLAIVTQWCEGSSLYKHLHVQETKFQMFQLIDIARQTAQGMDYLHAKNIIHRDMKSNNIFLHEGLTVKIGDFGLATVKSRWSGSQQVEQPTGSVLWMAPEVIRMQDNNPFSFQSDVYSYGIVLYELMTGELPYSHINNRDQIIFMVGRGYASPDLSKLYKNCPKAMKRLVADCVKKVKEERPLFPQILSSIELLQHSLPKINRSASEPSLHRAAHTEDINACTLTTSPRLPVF

pIC50 (BRAF; Table 3) | pIC50 (CRAF; Table 3) | pIC50 (HCT116 pERK; Table 3) | Compound | HCT116 (Ymin %) (HCT116 pERK; Table 3) [%] | SW480 (Ymin %) (SW480 pERK; Table 3) [%] | also measured
8.00 to 9.00 | > 8.00 | > 6.30 | Cc1c(F)cccc1S(=O)(=O)Nc1ccc(F)c(Nc2ncnc3cnc(-n4nnc5c(N)cccc54)nc23)c1F [Example 93] | 1.3 | – | –
> 9.00 | > 8.00 | > 6.30 | O=S(=O)(Nc1ccc(F)c(Nc2ncnc3cnc(-n4nnc5c(N6CCN(CCO)CC6)cccc54)nc23)c1F)c1cccc(Cl)c1Cl [Example 139] | 2 | – | –
> 9.00 | > 8.00 | 6.00 to 6.30 | Cc1c(F)cccc1S(=O)(=O)Nc1ccc(F)c(Nc2ncnc3cnc(-n4cc(C(=O)N5CCC(O)CC5)c5ccccc54)nc23)c1F [Example 102] | −9.5 | – | –
< 8.00 | 7.30 to 8.00 | 5.00 to 6.00 | CCc1ccccc1S(=O)(=O)Nc1ccc(F)c(Nc2ncnc3cnc(-n4cnc5ccccc54)nc23)c1F [Example 148] | −1 | – | –

Further lines, the molecule ahead of its results:

Compound | pIC50 (BRAF; Table 3) | pIC50 (CRAF; Table 3) | pIC50 (HCT116 pERK; Table 3) | HCT116 (Ymin %) (HCT116 pERK; Table 3) [%] | SW480 (Ymin %) (SW480 pERK; Table 3) [%] | also measured
Cc1c(F)cccc1S(=O)(=O)Nc1ccc(F)c(Nc2ncnc3cnc(-n4cnc5ccccc54)nc23)c1F [Example 83] | 8.00 to 9.00 | > 8.00 | > 6.30 | −10 | −2 | pIC50 (SW480 pERK; [1]): > 6.30
COc1ccc(S(=O)(=O)Nc2ccc(F)c(Nc3ncnc4cnc(SC)nc34)c2F)cc1 [Example 1] | – | – | – | – | – | pIC50 (BRAF; Table 2): < 8.00; pIC50 (CRAF; Table 2): < 7.30; pIC50 (HCT116 pERK; Homo sapiens, HCT-116, Table 2): 4.52 to 5.00; pIC50 (SW480 pERK; Homo sapiens, SW480, Table 2, read-out: SW480 PERK IC50 (UM)): 5.00 to 6.00; SW480 (Ymin %) (SW480 pERK; Table 2): 6%
O=C1CCc2c(Oc3ccc4c(c3)[C@@H]3[C@H](O4)[C@H]3c3nc4ccc(C(F)(F)F)cc4[nH]3)ccnc2N1 [BGB283, reference compound] | – | – | – | – | – | IC50 (ARAF): > 20 nM
O=S(=O)(Nc1ccc(F)c(Nc2ncnc3cnc(-n4cnc5ccccc54)nc23)c1F)c1cccc(Cl)c1Cl [Example 81] | > 9.00 | > 8.00 | – | – | 3 | pIC50 (HCT116 pERK; Homo sapiens, HCT-116, Table 3): > 6.30; pIC50 (SW480 pERK; Homo sapiens, SW480, Table 3, read-out: SW480 PERK IC50): > 6.30
Cc1ccc(NC(=O)c2ccnc(C(F)(F)F)c2)cc1-c1cc(OCCO)nc(N2CCOCC2)c1 [LXH254, reference compound] | – | – | – | – | – | IC50 (ARAF): > 20 nM
COc1ccc(S(=O)(=O)Nc2ccc(F)c(Nc3ncnc4c(N)nc(-n5cnc6ccccc65)nc34)c2F)c(C)c1 [Example 88] | – | – | – | – | – | pIC50 (BRAF; Table 4): < 8.00; pIC50 (CRAF; Table 4): < 7.30; pIC50 (HCT116 pERK; Homo sapiens, HCT-116, Table 4): 5.00 to 6.00; pIC50 (SW480 pERK; Homo sapiens, SW480, Table 4, read-out: SW480 PERK IC50): 5.00 to 6.00; SW480 (Ymin %) (SW480 pERK; Table 4): 2%
COc1ccc(S(=O)(=O)Nc2ccc(F)c(Nc3ncnc4cnc(N5CC[C@H](F)C5)nc34)c2F)c(C)c1 [Example 57] | < 8.00 | < 7.30 | 5.00 to 6.00 | −2 | −2 | pIC50 (SW480 pERK; [1]): 5.00 to 6.00
O=S(=O)(Nc1ccc(F)c(Nc2ncnc3cnc(-n4cnc5ccccc54)nc23)c1F)c1ccc(Cl)cc1Cl [Example 63] | 8.00 to 9.00 | > 8.00 | 5.00 to 6.00 | −2 | 1 | pIC50 (SW480 pERK; [1]): 5.00 to 6.00
Cc1c(F)cccc1S(=O)(=O)Nc1ccc(F)c(Nc2ncnc3cnc(-n4cnc5c(N)cccc54)nc23)c1F [Example 82] | 8.00 to 9.00 | > 8.00 | > 6.30 | −10 | 3.2 | pIC50 (SW480 pERK; [1]): > 6.30
Cc1ncn(-c2ncc3ncnc(Nc4c(F)ccc(NS(=O)(=O)c5ccc(Cl)cc5Cl)c4F)c3n2)c1C [Example 62] | 8.00 to 9.00 | 7.30 to 8.00 | 5.00 to 6.00 | 11 | 2 | pIC50 (SW480 pERK; [1]): 6.00 to 6.30
Cc1c(F)cccc1S(=O)(=O)Nc1ccc(F)c(Nc2ncnc3cnc(-n4cc(C(=O)N5CCC[C@H](O)C5)c5ccccc54)nc23)c1F [Example 103] | > 9.00 | > 8.00 | 6.00 to 6.30 | −9.9 | – | –
N#CC1CCN(c2cccc3c2ncn3-c2ncc3ncnc(Nc4c(F)ccc(NS(=O)(=O)c5cccc(Cl)c5Cl)c4F)c3n2)CC1 [Example 132] | 8.00 to 9.00 | > 8.00 | > 6.30 | −4 | – | –
COc1ccc(S(=O)(=O)Nc2ccc(F)c(Nc3ncnc4cnc(SC)nc34)c2F)c(C)c1F [Example 91] | – | – | – | – | – | pIC50 (BRAF; Table 2): < 8.00; pIC50 (CRAF; Table 2): 7.30 to 8.00; pIC50 (HCT116 pERK; Table 2): 5.00 to 6.00; HCT116 (Ymin %) (HCT116 pERK; Table 2): −8%
CC1(O)CCN(c2cccc3c2ncn3-c2ncc3ncnc(Nc4c(F)ccc(NS(=O)(=O)c5cccc(Cl)c5Cl)c4F)c3n2)CC1 [Example 130] | 8.00 to 9.00 | > 8.00 | > 6.30 | −13 | – | –
CCC1(O)CCN(c2cccc3c2ncn3-c2ncc3ncnc(Nc4c(F)ccc(NS(=O)(=O)c5ccc(F)c(F)c5C)c4F)c3n2)CC1 [Example 155] | 8.00 to 9.00 | < 7.30 | > 6.30 | −8 | – | –
